Earlier results as cited in patent publication US7608286B2, “Phyto-nutraceutical synergistic composition for hyperlipedemic condition” (priority 2006, dated 2009).

What was measured:
[1] = system: bacterial resistance mechanism (multidrug pump); conditions: in the presence of 5′-MHC
rats = conditions: rat, in vivo
[2] = biological target: T1, lanosterol 14alpha -demethylase (Homo sapiens, UniProt Q16850)
T1 sequence (Q16850 1-509): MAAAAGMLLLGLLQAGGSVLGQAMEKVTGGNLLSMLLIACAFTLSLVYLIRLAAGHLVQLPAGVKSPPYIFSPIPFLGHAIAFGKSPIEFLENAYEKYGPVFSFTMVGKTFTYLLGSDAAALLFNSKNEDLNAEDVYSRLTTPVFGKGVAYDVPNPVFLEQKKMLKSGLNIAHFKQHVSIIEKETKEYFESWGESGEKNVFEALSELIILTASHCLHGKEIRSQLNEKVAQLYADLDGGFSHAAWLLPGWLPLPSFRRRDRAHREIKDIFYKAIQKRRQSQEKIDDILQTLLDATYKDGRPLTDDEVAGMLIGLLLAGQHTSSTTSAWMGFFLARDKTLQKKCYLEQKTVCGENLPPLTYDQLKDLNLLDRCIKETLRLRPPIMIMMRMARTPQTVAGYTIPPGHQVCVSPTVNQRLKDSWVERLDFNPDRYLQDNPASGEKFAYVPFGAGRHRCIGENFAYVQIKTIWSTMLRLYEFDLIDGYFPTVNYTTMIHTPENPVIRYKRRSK

[3] = system: normolipidemic and hyperlipidemic patients with low HDL-C levels; conditions: low dose (1.5 g/d)
[4] = system: participants having low blood concentrations of HDL-C; conditions: time-release
[5] = system: cultured human liver (HepG2) cells
[6] = system: apolipoprotein E-null mice; conditions: evolving versus established

In the case of `COc1cc([C@H]2Oc3cc(-c4cc(=O)c5c(O)cc(O)cc5o4)cc(OC)c3O[C@@H]2CO)ccc1O` (racemic) [5′-MHC, 5′-methoxyhydnocarpin], the “accumulation of berberine in the cells” value [1] is given as “strong increase”.
For `Nc1ncnc2c1ncn2C[C@@H](O)[C@@H](O)C(=O)O` [Eritadenine], the “S-adenosylmethionine (SAM):S-adenosylhomocysteine (SAH) ratio in the liver” value (rats) is listed as “significantly decreased”, the “phosphatidylcholine (PC):phosphatidylethanolamine ratio in liver microsomes” value (rats) is listed as “significantly decreased” and the plasma cholesterol concentration (rats) is listed as “significantly decreased”.
For `C/C(C=O)=C\CC[C@@H](C)[C@H]1CC[C@@]2(C)C3=CC[C@H]4C(C)(C)C(=O)CC[C@]4(C)C3=CC[C@]12C` [ganoderal A], the “cholesterol biosynthesis / lanosterol 14alpha -demethylase” value [2] is given as “inhibit cholesterol biosynthesis”.
In the case of `C/C(=C\CC[C@@H](C)[C@H]1CC[C@@]2(C)C3=CC[C@H]4C(C)(C)C(=O)CC[C@]4(C)C3=CC[C@]12C)CO` [ganoderol A], the “cholesterol biosynthesis / lanosterol 14alpha -demethylase” value [2] is given as “inhibit cholesterol biosynthesis”.
For `C/C(=C\CC[C@@H](C)[C@H]1CC[C@@]2(C)C3=CC[C@H]4C(C)(C)[C@@H](O)CC[C@]4(C)C3=CC[C@]12C)CO` [ganoderol B], the “cholesterol biosynthesis / lanosterol 14alpha -demethylase” value [2] is listed as “inhibit cholesterol biosynthesis”.
In the case of `O=C(O)c1cccnc1` [nicotinic acid, Nicotinic acid], the “average increase in HDL-C levels” value [3] is listed as 20%, the triglyceride levels [3] is listed as “significantly lowers” and the “change of total cholesterol concentrations” value [4] is listed as -20 mg/dL. The “decrease of low-density lipoprotein cholesterol levels” value [4] was 13%, the “decrease of the ratio of total cholesterol to HDL-C” value [4] was 25% and the “decrease of total cholesterol concentrations” value [4] was 9%. For the same compound, the “decrease of triglyceride levels” value [4] was 20%, the “mean change of HDL-C levels” value [4] was “+6 mg/dl” and the “mean increase of HDL-C levels” value [4] was 18%.
In the case of (−)-epigallocatechin gallate [EGCG], the “cellular cholesterol concentration lowered” value [5] is listed as 28%, the cellular cholesterol synthesis [5] is listed as “significantly lowered” and the “increase of LDL receptor binding activity” value [5] is listed as 3 fold. For the same compound, the atherosclerotic lesions [6] was “differentially reduces evolving atherosclerotic lesions without influencing established atherosclerosis”.
For ganoderic acid, the “cholesterol biosynthesis / lanosterol 14alpha -demethylase” value [2] is listed as “inhibit cholesterol biosynthesis”.
